Laboratory results reported in ChEMBL document CHEMBL1201862, “PubChem BioAssay data set” (2004).
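Exposure lasted 48 hours, with cells grown in 96-well plates and compounds tested at five concentrations. Abbreviation: GI50, concentration required for 50% inhibition of growth.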 The source made the active and inactive calls. No stated cut-off is given here; in the data, active = GI50 up to about 1.1 µM and inactive = higher.

Assays:
Experiment in all cases: inhibition of tumour cell growth, NCI panel, 48 h
DMS-114 = test system: DMS-114
DMS-273 = test system: DMS-273
KM-20L2 = test system: KM-20L2
LXFL 529 = test system: LXFL 529
SNB-78 = test system: SNB-78
DLD-1 = test system: DLD-1
HOP-18 = test system: HOP-18
XF498 = test system: XF498
RXF 631 = test system: RXF 631

With CCCCCCCCCCCC(=O)OCC1OC(n2cc(F)c(=O)[nH]c2=O)C(N)C(OC(=O)CCCCCCCCCCC)C1O (configuration not stated) the GI50 (DMS-114) was 49.5 µM (inactive), the GI50 (DMS-273) was 44.3 µM (inactive) and the GI50 (KM-20L2) was > 100 µM (inactive). For the same compound, the GI50 (LXFL 529) was 33.9 µM (inactive) and the GI50 (SNB-78) was 71.1 µM (inactive).
O=C(O)CCCCCOc1cccnc1/C=N/NC1=NCCN1 was tested, and the GI50 (DLD-1) was > 100 µM (inactive), the GI50 (DMS-273) was > 100 µM (inactive) and the GI50 (HOP-18) was > 100 µM (inactive). The GI50 (KM-20L2) was > 100 µM (inactive), the GI50 (LXFL 529) was > 100 µM (inactive) and the GI50 (SNB-78) was > 100 µM (inactive). The GI50 (XF498) was 91 µM (inactive).
O=c1nc(NC(c2ccccc2)(c2ccccc2)c2ccccc2)ccn1CCNCCn1ccc(NC(c2ccccc2)(c2ccccc2)c2ccccc2)nc1=O was tested, and the GI50 (DLD-1) was 6.53 µM (inactive), the GI50 (DMS-114) was 3.23 µM (inactive) and the GI50 (DMS-273) was 4.16 µM (inactive). The GI50 (HOP-18) was 16.3 µM (inactive), the GI50 (KM-20L2) was 10 µM (inactive) and the GI50 (LXFL 529) was 5.26 µM (inactive). For the same compound, the GI50 (XF498) was 4.11 µM (inactive).
CCOC(=O)CC[C@H](NC(=O)c1nc[nH]c1[N+](=O)[O-])C(=O)OCC was tested, and the GI50 (DLD-1) was > 100 µM (inactive), the GI50 (DMS-114) was > 100 µM (inactive) and the GI50 (DMS-273) was > 100 µM (inactive). The GI50 (HOP-18) was > 100 µM (inactive), the GI50 (KM-20L2) was > 100 µM (inactive) and the GI50 (LXFL 529) was > 100 µM (inactive). For the same compound, the GI50 (SNB-78) was > 100 µM (inactive).
COc1ccc(OCC(=O)O)c2c1CCC(C(C)C)C2=O (configuration not stated) was tested, and the GI50 (DLD-1) was > 100 µM (inactive), the GI50 (DMS-114) was > 100 µM (inactive) and the GI50 (DMS-273) was > 100 µM (inactive). For the same compound, the GI50 (HOP-18) was > 100 µM (inactive), the GI50 (KM-20L2) was > 100 µM (inactive) and the GI50 (LXFL 529) was > 100 µM (inactive). The GI50 (RXF 631) was > 100 µM (inactive) and the GI50 (SNB-78) was > 100 µM (inactive).
In the case of CC(=O)OC(/C=C1/C=CC(=O)O1)COC(=O)c1ccccc1 (configuration not stated) [ACETYLMELODORINOL], the GI50 (DLD-1) is reported as > 31.2 µM (inactive), the GI50 (DMS-114) is reported as > 31.2 µM (inactive) and the GI50 (DMS-273) is reported as > 31.2 µM (inactive). The GI50 (HOP-18) was > 31.2 µM (inactive), the GI50 (KM-20L2) was > 31.2 µM (inactive) and the GI50 (LXFL 529) was > 31.2 µM (inactive). For the same compound, the GI50 (SNB-78) was > 31.2 µM (inactive) and the GI50 (XF498) was > 31.2 µM (inactive).
For COC(=O)C(C(=O)c1ccccc1)C(C(=O)C(=O)Nc1ccc(OC)cc1OC)C(=O)C(=O)c1ccc(C)cc1 (configuration not stated), the GI50 (DLD-1) was > 100 µM (inactive), the GI50 (DMS-114) was > 100 µM (inactive) and the GI50 (DMS-273) was > 100 µM (inactive). The GI50 (HOP-18) was > 100 µM (inactive), the GI50 (KM-20L2) was > 100 µM (inactive) and the GI50 (LXFL 529) was > 100 µM (inactive). For the same compound, the GI50 (RXF 631) was > 100 µM (inactive), the GI50 (SNB-78) was > 100 µM (inactive) and the GI50 (XF498) was > 100 µM (inactive).
With CN(C)C(=S)/N=c1\ss/c(=N\c2ccccc2)n1-c1ccccc1 the GI50 (DLD-1) was 28.4 µM (inactive), the GI50 (DMS-114) was 1.44 µM (inactive) and the GI50 (DMS-273) was 16.6 µM (inactive). The GI50 (HOP-18) was 28.5 µM (inactive), the GI50 (LXFL 529) was 0.0542 µM (active) and the GI50 (RXF 631) was 29.9 µM (inactive). For the same compound, the GI50 (SNB-78) was 20.7 µM (inactive).
In the case of O=C(O)CSc1nnc(-c2ccc(O)cc2)[nH]1, the GI50 (DLD-1) is reported as > 100 µM (inactive), the GI50 (DMS-114) is reported as > 100 µM (inactive) and the GI50 (DMS-273) is reported as > 100 µM (inactive). The GI50 (HOP-18) was > 100 µM (inactive), the GI50 (KM-20L2) was > 100 µM (inactive) and the GI50 (RXF 631) was > 100 µM (inactive). The GI50 (SNB-78) was > 100 µM (inactive) and the GI50 (XF498) was > 100 µM (inactive).
For O=C(CCc1nnc(S)[nH]1)Nc1ccccc1Cl, the GI50 (DLD-1) was > 100 µM (inactive), the GI50 (DMS-114) was > 100 µM (inactive) and the GI50 (DMS-273) was > 100 µM (inactive). For the same compound, the GI50 (HOP-18) was > 100 µM (inactive), the GI50 (KM-20L2) was > 100 µM (inactive) and the GI50 (LXFL 529) was > 100 µM (inactive). The GI50 (SNB-78) was > 100 µM (inactive) and the GI50 (XF498) was > 100 µM (inactive).
Cc1nn2c3c(nnc2c1C#N)C(=O)NN=C(N)S3 was tested, and the GI50 (DLD-1) was > 100 µM (inactive), the GI50 (HOP-18) was > 100 µM (inactive) and the GI50 (KM-20L2) was > 100 µM (inactive). The GI50 (LXFL 529) was > 100 µM (inactive).
CC(=O)OCC1OC(OC2CC3C(C)(C)C(OC(C)=O)CC[C@]3(C)C3CCC45CC4(CC[C@H]5C(C)CC(O)[C@@H](O)C(C)(C)O)[C@]23C)C(O)C(O)C1O (some centres not stated) was tested, and the GI50 (DLD-1) was 7.41 µM (inactive), the GI50 (DMS-273) was 7.62 µM (inactive) and the GI50 (HOP-18) was 8.61 µM (inactive). For the same compound, the GI50 (KM-20L2) was 8.05 µM (inactive), the GI50 (LXFL 529) was 5.65 µM (inactive) and the GI50 (XF498) was 19.8 µM (inactive).
In the case of COc1ccc(OC(=O)N2C/C(=C\c3ccccc3)C(=O)/C(=C/c3ccccc3)C2)cc1, the GI50 (DLD-1) is reported as 1.71 µM (inactive), the GI50 (DMS-273) is reported as 2.09 µM (inactive) and the GI50 (HOP-18) is reported as 16.8 µM (inactive). The GI50 (KM-20L2) was 5.42 µM (inactive), the GI50 (LXFL 529) was 2.64 µM (inactive) and the GI50 (SNB-78) was 3.43 µM (inactive).
C1=C(c2ccccc2)CN(c2ccccc2)OC1 was tested, and the GI50 (DLD-1) was 78.5 µM (inactive), the GI50 (DMS-273) was > 100 µM (inactive) and the GI50 (HOP-18) was 2.71 µM (inactive). For the same compound, the GI50 (KM-20L2) was 63.5 µM (inactive), the GI50 (LXFL 529) was 64 µM (inactive) and the GI50 (SNB-78) was > 100 µM (inactive). For the same compound, the GI50 (XF498) was > 100 µM (inactive).
With N#C/C(c1nc2ccccc2[nH]1)=c1\s/c(=C/c2ccc(Cl)cc2)c(=O)n1-c1ccccc1 the GI50 (DLD-1) was > 100 µM (inactive), the GI50 (DMS-114) was > 100 µM (inactive) and the GI50 (DMS-273) was > 100 µM (inactive). The GI50 (HOP-18) was > 100 µM (inactive), the GI50 (KM-20L2) was > 100 µM (inactive) and the GI50 (LXFL 529) was > 100 µM (inactive). For the same compound, the GI50 (XF498) was > 100 µM (inactive).
In the case of CCC(/C(=N/NC(=O)C[N+](C)(C)C)c1ccccc1)C1OC(=O)c2ccccc21 (configuration not stated), the GI50 (DMS-114) is reported as > 100 µM (inactive), the GI50 (DMS-273) is reported as > 100 µM (inactive) and the GI50 (KM-20L2) is reported as > 100 µM (inactive). The GI50 (LXFL 529) was > 100 µM (inactive), the GI50 (RXF 631) was > 100 µM (inactive) and the GI50 (SNB-78) was > 100 µM (inactive). For the same compound, the GI50 (XF498) was > 100 µM (inactive).
With c1ccc2c3c([nH]c2c1)C1(CCCCC1)c1c([nH]c2ccccc12)C31CCCCC1 the GI50 (DLD-1) was 96.2 µM (inactive), the GI50 (DMS-114) was 31.3 µM (inactive) and the GI50 (DMS-273) was 22.3 µM (inactive). The GI50 (HOP-18) was 20.6 µM (inactive), the GI50 (KM-20L2) was 36.1 µM (inactive) and the GI50 (LXFL 529) was 40.8 µM (inactive). The GI50 (SNB-78) was 18.8 µM (inactive) and the GI50 (XF498) was > 100 µM (inactive).
With COC(=O)c1nc(N)nc(O)c1-c1ccc(Cl)cc1 the GI50 (DLD-1) was > 100 µM (inactive), the GI50 (DMS-114) was > 100 µM (inactive) and the GI50 (DMS-273) was > 100 µM (inactive). For the same compound, the GI50 (KM-20L2) was > 100 µM (inactive), the GI50 (LXFL 529) was > 100 µM (inactive) and the GI50 (RXF 631) was > 100 µM (inactive). For the same compound, the GI50 (SNB-78) was > 100 µM (inactive) and the GI50 (XF498) was > 100 µM (inactive).
O=C(CSc1nnc(-c2ccc(/N=C\c3ccc(Cl)cc3)cc2)o1)Nc1ccccc1[N+](=O)[O-] was tested, and the GI50 (DMS-114) was > 100 µM (inactive), the GI50 (DMS-273) was > 100 µM (inactive) and the GI50 (HOP-18) was > 100 µM (inactive). The GI50 (KM-20L2) was > 100 µM (inactive), the GI50 (LXFL 529) was > 100 µM (inactive) and the GI50 (SNB-78) was > 100 µM (inactive). The GI50 (XF498) was > 100 µM (inactive).
O=C1c2ccccc2C(=O)C1C(c1ccc([N+](=O)[O-])cc1)C1C(=O)c2ccccc2C1=O was tested, and the GI50 (DLD-1) was 34.8 µM (inactive), the GI50 (DMS-114) was > 10 µM (inactive) and the GI50 (DMS-273) was 99.1 µM (inactive). The GI50 (HOP-18) was > 100 µM (inactive), the GI50 (KM-20L2) was > 100 µM (inactive) and the GI50 (LXFL 529) was 30.8 µM (inactive). The GI50 (RXF 631) was 12.1 µM (inactive), the GI50 (SNB-78) was 33.4 µM (inactive) and the GI50 (XF498) was 55.2 µM (inactive).
In the case of Cc1nc2ccccc2c(=O)[nH]1, the GI50 (DLD-1) is reported as > 100 µM (inactive), the GI50 (HOP-18) is reported as > 100 µM (inactive) and the GI50 (KM-20L2) is reported as > 100 µM (inactive). The GI50 (LXFL 529) was > 100 µM (inactive), the GI50 (RXF 631) was > 100 µM (inactive) and the GI50 (SNB-78) was > 100 µM (inactive). For the same compound, the GI50 (XF498) was > 100 µM (inactive).
With O=c1c2cc(Cl)ccc2n2nnc3ccc(NCCNCCO)c1c32 the GI50 (DLD-1) was 1.2 µM (inactive), the GI50 (DMS-114) was 1.49 µM (inactive) and the GI50 (DMS-273) was 0.641 µM (active). For the same compound, the GI50 (KM-20L2) was 0.962 µM (active), the GI50 (LXFL 529) was 1.09 µM (active) and the GI50 (RXF 631) was 1.07 µM (active). The GI50 (SNB-78) was 2.35 µM (inactive).
